Data: patent US6737383B1, “Herbicidal oxadiazolidines” (priority 1999, dated 2004)

Assays:
surinam grass = experiment: Test B pre/postemergence surinam grass; assay type: in vivo, Brachiaria decumbens
In short: (§1)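 Response is a visual 0-to-10 score relative to untreated plants, where 0 means no effect and 10 means complete control, taken twelve to sixteen days after application. Treatments went onto soil at planting and onto foliage of 1- to 4-leaf plants, using a surfactant-containing non-phytotoxic solvent.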

morningglory = experiment: Test B pre/postemergence morningglory; assay type: in vivo, Ipomoea hederacea
In short: as §1

velvetleaf = experiment: Test B pre/postemergence velvetleaf; assay type: in vivo, Abutilon theophrasti
In short: as §1

bamyardgrass = experiment: Test B flood test barnyardgrass; assay type: in vivo, Echinochloa crus-galli
In short: (§2)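 Flood test on plants grown to the 2-leaf stage; treated plants kept in greenhouse twelve to sixteen days, then visually rated against controls on a 0 (no effect) to 10 (complete control) scale.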

rape = experiment: Test B pre/postemergence rape; assay type: in vivo, Brassica napus
In short: as §1

giant foxtail = experiment: Test B pre/postemergence giant foxtail; assay type: in vivo, Setaria faberii
In short: as §1

corn = experiment: Test B pre/postemergence corn; assay type: in vivo, Zea mays
In short: as §1

crabgrass = experiment: Test B pre/postemergence crabgrass; assay type: in vivo, Digitaria sanguinalis
In short: as §1

wheat = experiment: Test B pre/postemergence wheat; assay type: in vivo, Triticum aestivum
In short: as §1

wild oat = experiment: Test B pre/postemergence wild oat; assay type: in vivo, Avena fatua
In short: as §1

cocklebur = experiment: Test B pre/postemergence cocklebur; assay type: in vivo, Xanthium strumarium
In short: as §1

bedstraw = experiment: Test B pre/postemergence bedstraw; assay type: in vivo, Galium aparine
In short: as §1

blackgrass = experiment: Test B pre/postemergence blackgrass; assay type: in vivo, Alopecurus myosuroides
In short: as §1

smallflower flatsedge = experiment: Test B flood test smallflower flatsedge; assay type: in vivo, Cyperus difformis
In short: as §2

duck salad = experiment: Test B flood test duck salad; assay type: in vivo, Heteranthera limosa
In short: as §2

soybean = experiment: Test B pre/postemergence soybean; assay type: in vivo, Glycine max
In short: as §1

[1] = Postemergence, Rate 125 g/ha, scale of 0 to 10 where 0 is no effect and 10 is complete control
[2] = Postemergence, Rate 250 g/ha, scale of 0 to 10, 0 is no effect, 10 is complete control
[3] = Postemergence, Rate 500 g/ha, scale of 0 to 10 where 0 is no effect and 10 is complete control
[4] = Postemergence, Rate 1000 g/ha, scale 0 to 10 (0 no effect, 10 complete control)
[5] = Preemergence, Rate 125 g/ha, scale of 0 to 10 where 0 is no effect and 10 is complete control
[6] = Preemergence, Rate 500 g/ha, scale of 0 to 10 where 0 is no effect and 10 is complete control
[7] = Rate 1000 g/ha, Preemergence, scale 0 to 10 (0 no effect, 10 complete control)
[8] = Pre-emergence, Rate 1000 g/ha, scale 0 to 10 (0 no effect, 10 complete control)
[9] = Rate 125 g/ha, under heading Pre-emergence, flood test species, visual evaluation after twelve to sixteen days
[10] = Rate 250 g/ha, Pre-emergence (flood test species), scale 0 to 10, 0 is no effect, 10 is complete control
[11] = Rate 500 g/ha, Pre-emergence section of Table B, 0 to 10 scale (0 no effect, 10 complete control)

C=CCn1c(=O)on(C(=O)N(c2c(C)cccc2C)C(C)COC)c1=O (centres unmarked) [Compound 600]
Plant response rating, B. signalgrass (surinam grass; [1]): 0 | B. signalgrass plant response rating (surinam grass; [2]): 0 | Plant response rating, B. signalgrass (surinam grass; [3]): 0 | B. signalgrass plant response rating (surinam grass; [4]): 0 | B. signalgrass plant response rating (surinam grass; [5]): 0 | B. signalgrass plant response rating (0 to 10 scale, 0 is no effect, 10 is complete control) (surinam grass; Preemergence, Rate 250 g/ha): 0 | B. signalgrass plant response rating (surinam grass; [6]): 0 | Plant response rating, B. signalgrass (surinam grass; [7]): 0 | Plant response rating, Morningglory (morningglory; [1]): 0 | Morningglory plant response rating (morningglory; [2]): 0 | Plant response rating, Morningglory (morningglory; [3]): 0 | Morningglory plant response rating (morningglory; [4]): 0 | Morningglory plant response rating (morningglory; [5]): 0 | Plant response rating, Morningglory (morningglory; [6]): 0 | Plant response rating, Morningglory (morningglory; [7]): 0 | Plant response rating, Velvetleaf (velvetleaf; [1]): 0 | Velvetleaf plant response rating (velvetleaf; [2]): 0 | Plant response rating, Velvetleaf (velvetleaf; [3]): 0 | Velvetleaf plant response rating (velvetleaf; [4]): 0 | Velvetleaf plant response rating (velvetleaf; [5]): 0 | Plant response rating, Velvetleaf (velvetleaf; [6]): 0 | Plant response rating, Velvetleaf (velvetleaf; [7]): 0 | Barnyardgrass plant response rating (bamyardgrass; [8]): 0 | Barnyardgrass plant response rating (0 to 10 scale, 0 is no effect, 10 is complete control) (bamyardgrass; [9]): 0 | Barnyardgrass plant response rating (bamyardgrass; [10]): 0 | Barnyardgrass plant response rating (bamyardgrass; [11]): 0 | Plant response rating, Rape (rape; [1]): 0 | Rape plant response rating (rape; [2]): 0 | Plant response rating, Rape (rape; [3]): 0 | Rape plant response rating (rape; [4]): 0 | Rape plant response rating (rape; [5]): 0 | Plant response rating, Rape (rape; [6]): 0 | Plant response rating, Rape (rape; [7]): 0 | Plant response rating, Giant foxtail (giant foxtail; [1]): 0 | Giant foxtail plant response rating (giant foxtail; [2]): 0 | Plant response rating, Giant foxtail (giant foxtail; [3]): 3 | Giant foxtail plant response rating (giant foxtail; [4]): 3 | Giant foxtail plant response rating (giant foxtail; [5]): 0 | Plant response rating, Giant foxtail (giant foxtail; [6]): 0 | Plant response rating, Giant foxtail (giant foxtail; [7]): 0 | Plant response rating, Corn (corn; [1]): 0 | Corn plant response rating (corn; [2]): 0 | Plant response rating, Corn (corn; [3]): 0 | Corn plant response rating (corn; [4]): 0 | Corn plant response rating (corn; [5]): 0 | Corn plant response rating (0 to 10 scale) (corn; Preemergence, Rate 250 g/ha): 0 | Plant response rating, Corn (corn; [6]): 0 | Plant response rating, Corn (corn; [7]): 0 | Plant response rating, Crabgrass (crabgrass; [1]): 1 | Plant response rating, Crabgrass (crabgrass; [3]): 3 | Crabgrass plant response rating (crabgrass; [4]): 3 | Crabgrass plant response rating (crabgrass; [5]): 0 | Plant response rating, Crabgrass (crabgrass; [6]): 0 | Plant response rating, Crabgrass (crabgrass; [7]): 0 | Plant response rating, Wheat (wheat; [1]): 0 | Wheat plant response rating (wheat; [2]): 0 | Plant response rating, Wheat (wheat; [3]): 0 | Wheat plant response rating (wheat; [4]): 0 | Wheat plant response rating (wheat; [5]): 0 | Plant response rating, Wheat (wheat; [6]): 0 | Plant response rating, Wheat (wheat; [7]): 0 | Plant response rating, Wild oats (wild oat; [1]): 0 | Wild oats plant response rating (wild oat; [2]): 0 | Plant response rating, Wild oats (wild oat; [3]): 0 | Wild oats plant response rating (wild oat; [4]): 0 | Wild oats plant response rating (wild oat; [5]): 0 | Plant response rating, Wild oats (wild oat; [6]): 0 | Plant response rating, Wild oats (wild oat; [7]): 0 | Plant response rating, Cocklebur (cocklebur; [1]): 0 | Cocklebur plant response rating (cocklebur; [2]): 0 | Plant response rating, Cocklebur (cocklebur; [3]): 0 | Cocklebur plant response rating (cocklebur; [4]): 0 | Cocklebur plant response rating (cocklebur; [5]): 0 | Cocklebur plant response rating (0 to 10 scale) (cocklebur; Preemergence, Rate 250 g/ha): 0 | Plant response rating, Cocklebur (cocklebur; [6]): 0 | Plant response rating, Cocklebur (cocklebur; [7]): 0 | Plant response rating, Bedstraw (bedstraw; [3]): 0 | Bedstraw plant response rating (bedstraw; [4]): 0 | Bedstraw plant response rating (0 to 10 scale) (bedstraw; Preemergence, Rate 250 g/ha): 0 | Bedstraw plant response rating (bedstraw; [6]): 0 | Plant response rating, Bedstraw (bedstraw; [7]): 0 | Plant response rating, Blackgrass (blackgrass; [1]): 0 | Blackgrass plant response rating (blackgrass; [2]): 0 | Plant response rating, Blackgrass (blackgrass; [3]): 0 | Blackgrass plant response rating (blackgrass; [4]): 0 | Blackgrass plant response rating (blackgrass; [5]): 0 | Blackgrass plant response rating (0 to 10 scale) (blackgrass; Preemergence, Rate 250 g/ha): 0 | Blackgrass plant response rating (blackgrass; [6]): 0 | Plant response rating, Blackgrass (blackgrass; [7]): 0 | S. Flatsedge plant response rating (smallflower flatsedge; [8]): 0 | S. Flatsedge plant response rating (0 to 10 scale, 0 is no effect, 10 is complete control) (smallflower flatsedge; [9]): 0 | S. Flatsedge plant response rating (smallflower flatsedge; [10]): 0 | S. Flatsedge plant response rating (smallflower flatsedge; [11]): 0 | Ducksalad plant response rating (duck salad; [8]): 0 | Ducksalad plant response rating (0 to 10 scale, 0 is no effect, 10 is complete control) (duck salad; [9]): 0 | Ducksalad plant response rating (duck salad; [10]): 0 | Ducksalad plant response rating (duck salad; [11]): 0 | Plant response rating, Soybean (soybean; [1]): 2 | Soybean plant response rating (soybean; [2]): 3 | Plant response rating, Soybean (soybean; [3]): 4 | Soybean plant response rating (soybean; [4]): 4 | Soybean plant response rating (soybean; [5]): 0 | Plant response rating, Soybean (soybean; [6]): 0 | Plant response rating, Soybean (soybean; [7]): 3
